Peptide text beside a SMILES is read from it.
Key:
[1] = system: Pseudomonas syringae pv. tomato (avrPto) in tomato (Pto/Pto) leaves; assay: Leaf infiltration of bacteria with peptide inhibitor, cell death; assay type: in vivo; details: incompatible interaction (host specific gene for gene hypersensitive response); inhibitor syringe-infiltrated with bacteria into leaf
[2] = system: Pseudomonas syringae pv. phaseolicola in tobacco leaves; assay: as above; assay type: in vivo; details: incompatible interaction (non-host hypersensitive response); inhibitor syringe-infiltrated with bacteria into leaf
[3] = system: Pseudomonas syringae pv. tabaci in tobacco leaves; assay: as above; assay type: in vivo; details: compatible interaction; inhibitor syringe-infiltrated with bacteria into leaf
Method: (§1) A leaf of the susceptible plant of interest is syringe or vacuum infiltrated with a concentration of virulent bacteria sufficient to cause disease and tissue death. A portion of the same leaf or another leaf on the same plant of similar position and age is infiltrated with bacteria and the tetrapeptide inhibitor. Usually a 0.5 mM concentration of inhibitor is sufficient to inhibit disease but may vary according to pathogen and host plant. Disease is permitted to develop under conditions suitable for the plant/pathogen combination. Symptoms are viewed over the course of the experiment to assess the level of symptom (death) inhibition by the caspase inhibitor compared to the control. The affect of the caspase inhibitor on bacterial growth can be assayed by taking samples of the tissue and performing growth curves of the pathogen as described in the literature.
(§2) Host plant leaves are infiltrated with bacteria at a suitable concentration (10^4 -10^8 colony forming units per ml) to cause disease. Leaves of the same age and position on the same or a different plant are infiltrated with bacteria of the same concentration with the desired peptide inhibitor added. All solutions are infiltrated directly into the plant leaf lamina with a syringe. Disease symptoms in the form of dead areas of cells are quantified by time lapse color image capture and lesion area measurements determined by digital image analysis. Samples of the control tissue and inhibitor treated tissues are analyzed on a time course basis for bacterial growth rate.
(§3) Pathogen growth is measured by grinding leaf disc samples in a suitable buffer followed by serial dilutions and plating of samples onto agar plates to determine the relative number of colonies produced. Colony counts are then related back to the original undiluted samples. Growth values are reported as means of several samples with appropriate statistical measures of mean separation. Differential effects of the inhibitors thus are measured both in terms of the amount of apoptotic cell death induced (symptoms) and by the effect of altering cell death induction on the amount of pathogen growth in the tissue.

[4] = system: Pseudomonas syringae pv. phaseolicola in bean leaves; assay: as above; assay type: in vivo; details: compatible interaction; inhibitor syringe-infiltrated with bacteria into leaf
Method: as §1, §2, §3

[5] = system: Pseudomonas syringae pv. angulata in tobacco leaves; assay: as above; assay type: in vivo; details: compatible interaction; inhibitor syringe-infiltrated with bacteria into leaf
Method: as §1, §2, §3

[6] = system: Pseudomonas syringae pv. syringae in tomato leaves; assay: as above; assay type: in vivo; details: compatible interaction; inhibitor syringe-infiltrated with bacteria into leaf
Method: as §1, §2, §3

[7] = system: Xanthamonas campestris pv tomato in tomato leaves; assay: as above; assay type: in vivo; details: compatible interaction; inhibitor syringe-infiltrated with bacteria into leaf
Method: as §1, §2, §3

[8] = system: Pseudomonas syringae pv. tomato in tomato leaves; assay: as above; assay type: in vivo; details: compatible interaction; inhibitor syringe-infiltrated with bacteria into leaf
Method: as §1, §2, §3

[9] = biological target: T1, caspase-3 (CPP32, apopain, Yama) (Homo sapiens, UniProt P42574); details: 0.1 uM inhibitor; 100 ul reaction, 30 units caspase-3, 0.2 mM DEVD-p-nitroanilide; cited from earlier work
T1 construct: purchased BIOMOL Research Laboratories, Inc. AK-700
T1 sequence (P42574 29-175 limits assumed): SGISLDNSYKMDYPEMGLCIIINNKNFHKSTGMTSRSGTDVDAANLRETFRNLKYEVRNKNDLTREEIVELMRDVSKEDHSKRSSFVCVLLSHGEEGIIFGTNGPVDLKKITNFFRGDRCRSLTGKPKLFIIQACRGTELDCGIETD
T1 sequence (P42574 176-277 limits assumed): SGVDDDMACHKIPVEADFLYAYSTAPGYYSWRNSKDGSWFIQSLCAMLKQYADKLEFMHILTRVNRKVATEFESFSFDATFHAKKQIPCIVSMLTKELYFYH

bean = assay: Blocking of apoptotic death or disease in bean; assay type: in vivo
tobacco = assay: Blocking of apoptotic death or disease in tobacco; assay type: in vivo

Compound	blocking of cell death [1]	blocking of cell death [2]	blocking of cell death [3]	blocking of cell death [8]	further results
CC(=O)N[C@@H](CC(=O)O)C(=O)N[C@@H](CCC(=O)O)C(=O)N[C@H](C(=O)N[C@H](C=O)CC(=O)O)C(C)C [Ac-DEVD-CHO]	blocks cell death	blocks cell death	blocks cell death	blocks cell death	blocking of cell death [4]: blocks cell death; blocking of cell death [5]: blocks cell death; blocking of cell death [6]: blocks cell death; blocking of cell death [7]: blocks cell death; blocking of caspase-3 activity [9]: completely blocked
CSCC[C@H](NC(=O)[C@H](CC(=O)O)NC(C)=O)C(=O)N[C@@H](CCC(N)=O)C(=O)N[C@H](C=O)CC(=O)O [Ac-DMQD-CHO] (Ac-DMQD-aldehyde)	–	blocks cell death	blocks cell death	blocks cell death	–
CC(=O)N[C@@H](Cc1ccc(O)cc1)C(=O)N[C@H](C(=O)N[C@@H](C)C(=O)N[C@H](C=O)CC(=O)O)C(C)C [Ac-YVAD-CHO]	–	blocks cell death but less well than others	blocks cell death but less well than others	blocks cell death but less well than others	–
CC(=O)N[C@@H](CC(C)C)C(=O)N[C@@H](CC(C)C)C(=O)N[C@H](C=O)CCCNC(=N)N [leupeptin]	–	–	–	–	blocking apoptotic death or disease (bean): not effective; blocking apoptotic death or disease (tobacco): not effective
Ac-DQMD-aldehyde	blocks cell death	–	–	–	–
Ac-Leu-Arg-Arg-aldehyde	–	–	does not block cell death	–	–
